Measured values taken from patent US9782412B2, “Preventive and/or therapeutic agent of immune disease” (TAIHO PHARMACEUTICAL CO., LTD., priority 2015, dated 2017).

Key:
[1] = system: A431 cells/TMD8 cells; experiment: Proliferation inhibitory activity against cell lines expressing BTK and EGFR, comparison of selectivity; type: cell-based, human; conditions: cells cultured three days with compound, CELLTITER GLO
Text: TMD8 cells, which are of a diffuse large B-cell lymphoma cell line expressing BTK, were suspended in RPMI1640 medium (Life Technologies Corp.) containing 10% fetal bovine serum. A431 cells, which are of an EGFR-overexpressing, highly activated human epidermoid carcinoma cell line, were suspended in DMEM, high glucose medium (Life Technologies Corp.) containing 10% fetal bovine serum. The cell suspensions were inoculated into each well of 384-well flat-bottomed microplates, and the cells were cultured for one day at 37° C. in an incubator containing 5% carbon dioxide gas. […] A DMSO solution of the test compounds was diluted with the medium used in the suspension of the each cell, and this was added to each of the wells of the cell culture plates such that the final concentration of DMSO would be 0.2%. The cells were further cultured for three days at 37° C. in an incubator containing 5% carbon dioxide gas. […] Proliferation inhibition ratio (%)=(C−T)/(C−C0)×100
T: Luminescence intensity of a well in which the test compound was added
C: Luminescence intensity of a well in which the test compound was not added
C0: Luminescence intensity of a well measured before the addition of the test compound
When a comparison is made between the cell proliferation inhibitory activity against A431 cells that depends on the EGFR proliferation signaling and the cell proliferation inhibitory activity against TMD8 cells that depends on the BTK proliferation signaling, the influence of the respective kinases at a cellular level is able to be evaluated. That is, when the “A431 cell proliferation inhibition ratio/TMD8 cell proliferation inhibition ratio” is calculated, it is contemplated that as the value of the ratio is larger, the selectivity to BTK over EGFR in the cells is higher.

[2] = target: T1, recombinant human BTK protein (Homo sapiens, UniProt Q06187); experiment: Measurement of BTK inhibitory activity (in vitro); type: biochemical; conditions: ATP 45 μM, 40 minutes at 25° C.
T1 construct: purchased Carna Biosciences, Inc
T1 sequence (Q06187 whole entry): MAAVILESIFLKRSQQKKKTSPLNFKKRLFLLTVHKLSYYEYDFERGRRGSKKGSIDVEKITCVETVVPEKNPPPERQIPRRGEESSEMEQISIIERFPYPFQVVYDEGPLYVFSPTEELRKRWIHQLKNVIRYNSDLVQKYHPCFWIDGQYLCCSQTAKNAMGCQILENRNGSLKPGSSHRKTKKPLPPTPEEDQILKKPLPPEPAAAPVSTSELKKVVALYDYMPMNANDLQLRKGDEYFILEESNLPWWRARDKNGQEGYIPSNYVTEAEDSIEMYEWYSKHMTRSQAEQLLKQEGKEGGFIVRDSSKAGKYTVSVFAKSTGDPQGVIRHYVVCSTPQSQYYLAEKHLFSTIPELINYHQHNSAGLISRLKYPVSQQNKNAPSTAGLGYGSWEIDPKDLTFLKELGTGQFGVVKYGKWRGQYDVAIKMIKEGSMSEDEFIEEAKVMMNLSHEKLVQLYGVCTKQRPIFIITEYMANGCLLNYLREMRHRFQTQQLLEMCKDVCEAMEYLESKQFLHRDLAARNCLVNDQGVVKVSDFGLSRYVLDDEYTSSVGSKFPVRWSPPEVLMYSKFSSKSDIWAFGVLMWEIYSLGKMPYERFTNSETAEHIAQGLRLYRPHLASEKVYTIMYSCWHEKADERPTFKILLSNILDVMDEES
Text: Regarding the setting of the conditions for a method for measuring the inhibitory activity of a compound against BTK kinase activity in vitro, it is described in the consumable reagent supplies price list for LabChip (registered trademark) series of PerkinElmer, Inc. that FL-PEPTIDE 2 corresponds to a substrate peptide for the measurement of BTK kinase activity. Therefore, FL-PEPTIDE 2 was used as a substrate. The purified recombinant human BTK protein used in the test was purchased from Carna Biosciences, Inc.
Regarding the measurement of the inhibitory activity of the compounds, firstly, the compounds of the present invention were diluted stepwise with DMSO. Subsequently, BTK protein, a substrate peptide (final concentration was 1 μM), magnesium chloride (final concentration was 10 mM), ATP (final concentration was 45 μM), and a DMSO solution of the compounds of the present invention (final concentration of DMSO was 5%) were added to a buffer solution for kinase reaction (20 mM HEPES (pH 7.5), 2 mM dithiotheitol, 0.01% Triton X-100), and after the solution was incubated for 40 minutes at 25° C., a kinase reaction was carried out. The reaction was terminated by adding EDTA thereto so as to obtain a final concentration of 30 mM. Finally, a substrate peptide that was not phosphorylated (S) and a phosphorylated peptide (P) were separated and detected by microchannel capillary electrophoresis with a LabChip EZ Reader II (PerkinElmer, Inc.).

**Q.** With Nc1ncnc2c1c(C(=O)Nc1nc3cc(Cl)ccc3o1)nn2[C@@H]1CCCN(C(=O)/C=C/CN2CCCC2)C1 [Example 19, (R,E)-4-amino-N-(5-chlorobenzo[d]oxazol-2-yl)-1-(1-(4-(pyrrolidin-1-yl)but-2-enoyl)piperidin-3-yl)-1H-pyrazolo[3,4-d]pyrimidine-3-carboxamide] as the molecule, how does the “A431 cell proliferation inhibition ratio/TMD8 cell proliferation inhibition ratio” value [1] read?
**A.** >17825.3

**Q.** With CCN(CC)C/C=C/C(=O)N1CCC[C@@H](n2nc(C(=O)Nc3nc4cc(Cl)ccc4o3)c3c(N)ncnc32)C1 [Example 17, (R,E)-4-amino-N-(5-chlorobenzo[d]oxazol-2-yl)-1-(1-(4-(diethylamino)but-2-enoyl)piperidin-3-yl)-1H-pyrazolo[3,4-d]pyrimidine-3-carboxamide] as the molecule, how does the “A431 cell proliferation inhibition ratio/TMD8 cell proliferation inhibition ratio” value [1] read?
**A.** >12345.7

**Q.** For Nc1ncnc2c1c(C(=O)Nc1nc3cc(Cl)ccc3o1)cn2[C@@H]1CCN(C(=O)/C=C/CN2CCCC2)C1 [Example 53, (R,E)-4-amino-N-(5-chlorobenzo[d]oxazol-2-yl)-7-(1-(4-(pyrrolidin-1-yl)but-2-enoyl)pyrrolidin-3-yl) 7H-pyrrolo[2,3-d]pyrimidine-5-carboxamide], which “A431 cell proliferation inhibition ratio/TMD8 cell proliferation inhibition ratio” value [1] is on record?
**A.** >1535.4

**Q.** For C=CC(=O)N1CC[C@@H](n2nc(C(=O)Nc3nc4cc(OC)ccc4o3)c3c(N)ncnc32)C1 [Example 38, (R)-1-(1-acryloylpyrrolidin-3-yl)-4-amino-N-(5-methoxybenzo[d]oxazol-2-yl)-1H-pyrazolo[3,4-d]pyrimidine-3-carboxamide], which IC50 [2] is on record?
**A.** 0.888 nM

**Q.** With C=CC(=O)N1CCC[C@@H](n2nc(C(=O)Nc3nc4cc(C)c(C)cc4o3)c3c(N)ncnc32)C1 [Example 23, (R)-1-(1-acryloylpiperidin-3-yl)-4-amino-N-(5,6-dimethylbenzo[d]oxazol-2-yl)-1H-pyrazolo[3,4-d]pyrimidine-3-carboxamide] as the molecule, how does the “A431 cell proliferation inhibition ratio/TMD8 cell proliferation inhibition ratio” value [1] read?
**A.** >10680

**Q.** CCN(CC)C/C=C/C(=O)N1CC[C@@H](n2nc(C(=O)Nc3nc4cc(Cl)ccc4o3)c3c(N)ncnc32)C1 [Example 34, (R,E)-4-amino-N-(5-chlorobenzo[d]oxazol-2-yl)-1-(1-(4-(diethylamino)but-2-enoyl)pyrrolidin-3-yl)-1H-pyrazolo[3,4-d]pyrimidine-3-carboxamide] was tested. Which “A431 cell proliferation inhibition ratio/TMD8 cell proliferation inhibition ratio” value [1] did it give?
**A.** >22471.9

**Q.** For CC(C)N(C)C/C=C/C(=O)N1CC[C@@H](n2nc(C(=O)Nc3nc4cc(Cl)ccc4o3)c3c(N)ncnc32)C1 [Example 35, (R,E)-4-amino-N-(5-chlorobenzo[d]oxazol-2-yl)-1-(1-(4-(isopropyl(methyl)amino)but-2-enoyl)pyrrolidin-3-yl)-1H-pyrazolo[3,4-d]pyrimidine-3-carboxamide], which “A431 cell proliferation inhibition ratio/TMD8 cell proliferation inhibition ratio” value [1] is on record?
**A.** >18691.6

**Q.** For Nc1ncnc2c1c(C(=O)Nc1nc3cc(Cl)ccc3o1)cn2[C@@H]1CCN(C(=O)/C=C/CN2CCCCC2)C1 [Example 54, (R,E)-4-amino-N-(5-chlorobenzo[d]oxazol-2-yl)-7-(1-(4-(piperidin-1-yl)but-2-enoyl)pyrrolidin-3-yl) 7H-pyrrolo[2,3-d]pyrimidine-5-carboxamide], which “A431 cell proliferation inhibition ratio/TMD8 cell proliferation inhibition ratio” value [1] is on record?
**A.** >2675.9

**Q.** With CCN(CC)C/C=C/C(=O)N1CC[C@@H](n2cc(C(=O)Nc3nc4cc(Cl)ccc4o3)c3c(N)ncnc32)C1 [Example 51, (R,E)-4-amino-N-(5-chlorobenzo[d]oxazol-2-yl)-7-(1-(4-(diethylamino)but-2-enoyl)pyrrolidin-3-yl) 7H-pyrrolo[2,3-d]pyrimidine-5-carboxamide] as the molecule, how does the “A431 cell proliferation inhibition ratio/TMD8 cell proliferation inhibition ratio” value [1] read?
**A.** >2044.6

**Q.** Which “A431 cell proliferation inhibition ratio/TMD8 cell proliferation inhibition ratio” value [1] does the source give for C=CC(=O)N1CCC[C@@H](n2nc(C(=O)Nc3nc4cc(Br)ccc4o3)c3c(N)ncnc32)C1 [Example 2, (R)-1-(1-acryloylpiperidin-3-yl)-4-amino-N-(5-bromobenzo[d]oxazol-2-yl)-1H-pyrazolo[3,4-d]pyrimidine-3-carboxamide] here?
**A.** >1033.6

**Q.** With CCN(C)C/C=C/C(=O)N1CC[C@@H](n2cc(C(=O)Nc3nc4cc(Cl)ccc4o3)c3c(N)ncnc32)C1 [Example 50, (R,E)-4-amino-N-(5-chlorobenzo[d]oxazol-2-yl)-7-(1-(4-(ethyl(methyl)amino)but-2-enoyl)pyrrolidin-3-yl) 7H-pyrrolo[2,3-d]pyrimidine-5-carboxamide] as the molecule, how does the “A431 cell proliferation inhibition ratio/TMD8 cell proliferation inhibition ratio” value [1] read?
**A.** >2767.8

**Q.** How did the IC50 [2] turn out when CC#CC(=O)N1CCC[C@@H](n2nc(C(=O)Nc3nc4ccccc4o3)c3c(N)ncnc32)C1 [Example 22] was run?
**A.** 14.2 nM

**Q.** Which “A431 cell proliferation inhibition ratio/TMD8 cell proliferation inhibition ratio” value [1] does the source give for CCN(C)C/C=C/C(=O)N1CCC[C@@H](n2nc(C(=O)Nc3nc4cc(Cl)ccc4o3)c3c(N)ncnc32)C1 [Example 16, (R,E)-4-amino-N-(5-chlorobenzo[d]oxazol-2-yl)-1-(1-(4-(ethyl(methyl)amino)but-2-enoyl)piperidin-3-yl)-1H-pyrazolo[3,4-d]pyrimidine-3-carboxamide] here?
**A.** >16313.2

**Q.** Which “A431 cell proliferation inhibition ratio/TMD8 cell proliferation inhibition ratio” value [1] does the source give for CN(C)C/C=C/C(=O)N1CC[C@@H](n2nc(C(=O)Nc3nc4cc(Cl)ccc4o3)c3c(N)ncnc32)C1 [Example 32, (R,E)-4-amino-N-(5-chlorobenzo[d]oxazol-2-yl)-1-(1-(4-(dimethylamino)but-2-enoyl)pyrrolidin-3-yl)-1H-pyrazolo[3,4-d]pyrimidine-3-carboxamide] here?
**A.** >11123.5

**Q.** Nc1ncnc2c1c(C(=O)Nc1nc3cc(Cl)ccc3o1)nn2[C@@H]1CCCN(C(=O)/C=C/CN2CCCCC2)C1 [Example 20, (R,E)-4-amino-N-(5-chlorobenzo[d]oxazol-2-yl)-1-(1-(4-(piperidin-1-yl)but-2-enoyl)piperidin-3-yl)-1H-pyrazolo[3,4-d]pyrimidine-3-carboxamide] was tested. Which “A431 cell proliferation inhibition ratio/TMD8 cell proliferation inhibition ratio” value [1] did it give?
**A.** >19120.5

**Q.** Which “A431 cell proliferation inhibition ratio/TMD8 cell proliferation inhibition ratio” value [1] does the source give for CC(C)N(C)C/C=C/C(=O)N1CCC[C@@H](n2nc(C(=O)Nc3nc4cc(Cl)ccc4o3)c3c(N)ncnc32)C1 [Example 18, (R,E)-4-amino-N-(5-chlorobenzo[d]oxazol-2-yl)-1-(1-(4-(isopropyl(methyl)amino)but-2-enoyl)piperidin-3-yl)-1H-pyrazolo[3,4-d]pyrimidine-3-carboxamide] here?
**A.** >15625.0

**Q.** How did the “A431 cell proliferation inhibition ratio/TMD8 cell proliferation inhibition ratio” value [1] turn out when C=CC(=O)N1CC[C@@H](n2nc(C(=O)Nc3nc4cc(CCOC)ccc4o3)c3c(N)ncnc32)C1 [Example 40, (R)-1-(1-acryloylpyrrolidin-3-yl)-4-amino-N-(5-(2-methoxyethyl)benzo[d]oxazol-2-yl)-1H-pyrazolo[3,4-d]pyrimidine-3-carboxamide] was run?
**A.** >3159.6

**Q.** How did the “A431 cell proliferation inhibition ratio/TMD8 cell proliferation inhibition ratio” value [1] turn out when CC(C)N(C)C/C=C/C(=O)N1CC[C@@H](n2cc(C(=O)Nc3nc4cc(Cl)ccc4o3)c3c(N)ncnc32)C1 [Example 52, (R,E)-4-amino-N-(5-chlorobenzo[d]oxazol-2-yl)-7-(1-(4-(isopropyl(methyl)amino)but-2-enoyl)pyrrolidin-3-yl) 7H-pyrrolo[2,3-d]pyrimidine-5-carboxamide] was run?
**A.** >3617.9

**Q.** For C=CC(=O)N1CC[C@@H](n2nc(C(=O)Nc3nc4cc(C#N)ccc4o3)c3c(N)ncnc32)C1 [Example 39, (R)-1-(1-acryloylpyrrolidin-3-yl)-4-amino-N-(5-cyanobenzo[d]oxazol-2-yl)-1H-pyrazolo[3,4-d]pyrimidine-3-carboxamide], which “A431 cell proliferation inhibition ratio/TMD8 cell proliferation inhibition ratio” value [1] is on record?
**A.** >3510.0

**Q.** With CN(C)C/C=C/C(=O)N1CC[C@@H](n2cc(C(=O)Nc3nc4cc(Cl)ccc4o3)c3c(N)ncnc32)C1 [Example 49, (R,E)-4-amino-N-(5-chlorobenzo[d]oxazol-2-yl)-7-(1-(4-(dimethylamino)but-2-enoyl)pyrrolidin-3-yl) 7H-pyrrolo[2,3-d]pyrimidine-5-carboxamide] as the molecule, how does the “A431 cell proliferation inhibition ratio/TMD8 cell proliferation inhibition ratio” value [1] read?
**A.** >3260.5
